# Results: ChEMBL document CHEMBL4396916, “Novel potent substituted 4-amino-2-thiopyrimidines as dual VEGFR-2 and BRAF kinase inhibitors” (Eur J Med Chem, 2019)
# Experiments:
# [1] = test system: NCI-H226; experiment: Growth inhibition of human NCI-H226 cells at 10 uM incubated for 48 hrs by sulforhodamine B assay relative to control; type: functional; settings: NCI-H226, 48 h, read-out: GI
# [2] = test system: NCI/ADR-RES; experiment: Growth inhibition of human NCI/ADR-RES cells at 10 uM incubated for 48 hrs by sulforhodamine B assay relative to control; type: functional; settings: read-out: GI
# [3] = test system: HOP-92; experiment: Growth inhibition of human HOP92 cells at 10 uM incubated for 48 hrs by sulforhodamine B assay relative to control; type: functional; settings: HOP-92, 48 h, read-out: GI
# [4] = test system: K562; experiment: Growth inhibition of human K562 cells at 10 uM incubated for 48 hrs by sulforhodamine B assay relative to control; type: functional; settings: K562, 48 h, read-out: GI
# [5] = test system: SNB-75; experiment: Growth inhibition of human SNB75 cells at 10 uM incubated for 48 hrs by sulforhodamine B assay relative to control; type: functional; settings: SNB-75, 48 h, read-out: GI
# [6] = test system: MDA-MB-435; experiment: Growth inhibition of human MDA-MB-435 cells at 10 uM incubated for 48 hrs by sulforhodamine B assay relative to control; type: functional; settings: MDA-MB-435, 48 h, read-out: GI
# [7] = test system: OVCAR-4; experiment: Growth inhibition of human OVCAR4 cells at 10 uM incubated for 48 hrs by sulforhodamine B assay relative to control; type: functional; settings: OVCAR-4, 48 h, read-out: GI
# [8] = test system: ACHN; experiment: Growth inhibition of human ACHN cells at 10 uM incubated for 48 hrs by sulforhodamine B assay relative to control; type: functional; settings: read-out: GI
# [9] = test system: MCF7; experiment: Inhibition of VEGFR2 level in human MCF7 cells at 10 uM measured after 48 hrs by ELISA relative to control; type: functional; settings: MCF7, 48 h
# [10] = test system: MOLT-4; experiment: Growth inhibition of human MOLT4 cells at 10 uM incubated for 48 hrs by sulforhodamine B assay relative to control; type: functional; settings: MOLT-4, 48 h, read-out: GI
# [11] = test system: OVCAR-8; experiment: Growth inhibition of human OVCAR8 cells at 10 uM incubated for 48 hrs by sulforhodamine B assay relative to control; type: functional; settings: OVCAR-8, 48 h, read-out: GI
# [12] = test system: RXF 393; experiment: Growth inhibition of human RXF393 cells at 10 uM incubated for 48 hrs by sulforhodamine B assay relative to control; type: functional; settings: RXF 393, 48 h, read-out: GI
# [13] = test system: Hs-578T; experiment: Growth inhibition of human Hs578T cells at 10 uM incubated for 48 hrs by sulforhodamine B assay relative to control; type: functional; settings: read-out: GI
# [14] = target: Vascular endothelial growth factor receptor 2 (Homo sapiens, UniProt P35968); experiment: Inhibition of human N-terminal GST tagged VEGFR-2 expressed in baculovirus infected Sf9 cells using poly (Glu,Tyr) 4:1 as substrate in presence of ATP by Kinase-Glo luminescence assay
# [15] = test system: HT-29; experiment: Growth inhibition of human HT-29 cells at 10 uM incubated for 48 hrs by sulforhodamine B assay relative to control; type: functional; settings: HT-29, 48 h, read-out: GI
# [16] = test system: TK-10; experiment: Growth inhibition of human TK10 cells at 10 uM incubated for 48 hrs by sulforhodamine B assay relative to control; type: functional; settings: TK-10, 48 h, read-out: GI
# [17] = test system: A549; experiment: Growth inhibition of human A549/ATCC cells at 10 uM incubated for 48 hrs by sulforhodamine B assay relative to control; type: functional; settings: A549, 48 h, read-out: GI
# [18] = test system: SF-539; experiment: Growth inhibition of human SF539 cells at 10 uM incubated for 48 hrs by sulforhodamine B assay relative to control; type: functional; settings: SF-539, 48 h, read-out: GI
# [19] = test system: IGROV-1; experiment: Growth inhibition of human IGROV1 cells at 10 uM incubated for 48 hrs by sulforhodamine B assay relative to control; type: functional; settings: IGROV-1, 48 h, read-out: GI
# [20] = test system: SW-620; experiment: Growth inhibition of human SW620 cells at 10 uM incubated for 48 hrs by sulforhodamine B assay relative to control; type: functional; settings: SW-620, 48 h, read-out: GI
# [21] = test system: KM12; experiment: Growth inhibition of human KM12 cells at 10 uM incubated for 48 hrs by sulforhodamine B assay relative to control; type: functional; settings: KM12, 48 h, read-out: GI
# [22] = test system: HCT-15; experiment: Growth inhibition of human HCT15 cells at 10 uM incubated for 48 hrs by sulforhodamine B assay relative to control; type: functional; settings: HCT-15, 48 h, read-out: GI
# [23] = test system: SF-295; experiment: Growth inhibition of human SF295 cells at 10 uM incubated for 48 hrs by sulforhodamine B assay relative to control; type: functional; settings: SF-295, 48 h, read-out: GI
# [24] = test system: M14; experiment: Growth inhibition of human M14 cells at 10 uM incubated for 48 hrs by sulforhodamine B assay relative to control; type: functional; settings: M14, 48 h, read-out: GI
# [25] = test system: COLO 205; experiment: Growth inhibition of human COLO205 cells at 10 uM incubated for 48 hrs by sulforhodamine B assay relative to control; type: functional; settings: COLO 205, 48 h, read-out: GI
# [26] = test system: HL-60(TB); experiment: Growth inhibition of human HL-60(TB) cells at 10 uM incubated for 48 hrs by sulforhodamine B assay relative to control; type: functional; settings: HL-60, 48 h, read-out: GI
# Sequence of Vascular endothelial growth factor receptor 2 (P35968 whole entry): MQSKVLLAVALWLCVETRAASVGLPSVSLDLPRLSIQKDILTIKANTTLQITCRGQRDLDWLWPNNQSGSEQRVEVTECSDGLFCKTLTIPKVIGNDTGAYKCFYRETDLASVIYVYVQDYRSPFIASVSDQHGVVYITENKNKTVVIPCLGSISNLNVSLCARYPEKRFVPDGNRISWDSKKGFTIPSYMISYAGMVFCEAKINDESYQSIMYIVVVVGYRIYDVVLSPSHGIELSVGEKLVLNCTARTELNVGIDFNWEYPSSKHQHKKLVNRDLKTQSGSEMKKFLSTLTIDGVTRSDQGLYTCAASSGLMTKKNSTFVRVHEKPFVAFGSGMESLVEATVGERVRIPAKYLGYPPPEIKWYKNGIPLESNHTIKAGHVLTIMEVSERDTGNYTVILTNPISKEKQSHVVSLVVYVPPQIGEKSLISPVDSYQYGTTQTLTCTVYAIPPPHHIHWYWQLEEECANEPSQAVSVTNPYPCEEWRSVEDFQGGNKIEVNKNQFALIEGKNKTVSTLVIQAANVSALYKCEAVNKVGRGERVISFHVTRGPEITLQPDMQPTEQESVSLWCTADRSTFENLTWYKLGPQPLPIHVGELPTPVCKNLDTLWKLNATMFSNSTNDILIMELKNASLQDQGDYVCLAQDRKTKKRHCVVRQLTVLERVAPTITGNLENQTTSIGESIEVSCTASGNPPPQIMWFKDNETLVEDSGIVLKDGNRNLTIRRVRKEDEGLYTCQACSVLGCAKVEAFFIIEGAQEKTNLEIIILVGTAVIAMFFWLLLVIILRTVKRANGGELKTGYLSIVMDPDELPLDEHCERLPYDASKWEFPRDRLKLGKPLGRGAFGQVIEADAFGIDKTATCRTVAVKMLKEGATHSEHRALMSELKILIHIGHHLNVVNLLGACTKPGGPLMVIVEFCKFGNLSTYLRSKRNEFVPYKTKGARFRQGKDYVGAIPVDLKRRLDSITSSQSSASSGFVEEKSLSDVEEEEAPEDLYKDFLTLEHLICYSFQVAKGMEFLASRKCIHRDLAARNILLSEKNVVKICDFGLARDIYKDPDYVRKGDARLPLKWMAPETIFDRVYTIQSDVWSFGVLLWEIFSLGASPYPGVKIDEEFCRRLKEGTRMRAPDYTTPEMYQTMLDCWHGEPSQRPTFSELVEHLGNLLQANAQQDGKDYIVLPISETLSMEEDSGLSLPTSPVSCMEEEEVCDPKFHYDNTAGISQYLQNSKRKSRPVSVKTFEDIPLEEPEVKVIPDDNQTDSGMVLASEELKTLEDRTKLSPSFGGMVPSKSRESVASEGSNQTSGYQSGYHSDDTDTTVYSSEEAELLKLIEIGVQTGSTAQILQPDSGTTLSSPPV
Structure (SMILES),inhibition of growth at 10 µM [1] [%],inhibition of growth at 10 µM [2] [%],inhibition of growth at 10 µM [4] [%],inhibition of growth at 10 µM [6] [%],inhibition of growth at 10 µM [7] [%],inhibition of growth at 10 µM [8] [%],inhibition at 10 µM [9] [%],inhibition of growth at 10 µM [10] [%],inhibition of growth at 10 µM [11] [%],IC50 [14] [nM],other results
O=C(CSc1nccc(Nc2ccc(N3CCOCC3)cc2)n1)c1ccc(F)cc1,45,26,28,16,57,24,33,25,62,260,inhibition of growth at 10 µM [3]: 26%; inhibition of growth at 10 µM [5]: 65%; inhibition of growth at 10 µM [12]: 43%; inhibition of growth at 10 µM [13]: 39%
CCOC(=O)c1ccc(Nc2ccnc(SCC(=O)c3ccc(C#N)cc3)n2)cc1,38,58,49,32,35,20,84,84,77,170,inhibition of growth at 10 µM [15]: 24%; inhibition of growth at 10 µM [16]: 10%; inhibition of growth at 10 µM [17]: 39%; inhibition of growth at 10 µM [18]: 17%; inhibition of growth at 10 µM [19]: 21%; inhibition of growth at 10 µM [20]: 10%; inhibition of growth at 10 µM [21]: 45%; inhibition of growth at 10 µM [22]: 24%; inhibition of growth at 10 µM [23]: 24%; inhibition of growth at 10 µM [24]: 49%; inhibition of growth at 10 µM [25]: 29%; inhibition of growth at 10 µM [26]: 24%
